The record followed here is ChEMBL document CHEMBL3507680, “University of Dundee, Gates Library screen for HepG2 cell viability”.

The data set can be described thus: Human HepG2 cell viability assay in 384 well format. The data set is classed as toxicity, cell-based. Set-up: dose 125 nL, time 70.5 hour; cytotoxicity at 70.5 h: concentration not given beside the values. To be noted: HepG2 cells, read-out: Inhibition.

For the molecule `O=C(c1cc(-c2cccs2)nc2ccccc12)N1CCN(CCO)CC1`, the cytotoxicity at 70.5 h stood at 0.548%.

As for `CN(C)c1nccnc1C1CCN(C2CCCCC2O)CC1` (stereo not drawn), the cytotoxicity at 70.5 h is -8.92%.

With `CNc1cc(C2CN(C(=O)c3ccn(C)n3)CCO2)nc(C)n1` (stereo not drawn), the cytotoxicity at 70.5 h turned out to be 26.5%.

Take `CNc1cc(C2CN(C(=O)c3ccccc3)CCO2)nc(C)n1` (stereo not drawn): the cytotoxicity at 70.5 h was -5.28%.

In the case of `CNc1cc(C2CN(C(=O)c3cscn3)CCO2)nc(C)n1` (stereo not drawn), the cytotoxicity at 70.5 h came to 26%.

On to `O=C(O)c1ccccc1-n1cnc(CN2CCc3ccccc32)c1`, for which the cytotoxicity at 70.5 h is -7.59%.

As to `Cc1cc(C)nc(C2CCCN2S(=O)(=O)N2CCOCC2)n1` (stereo not drawn), the cytotoxicity at 70.5 h was -4.98%.

`Cc1cc(O)cc(C2CCCN2C(=O)c2ccncc2)n1` (stereo not drawn): the cytotoxicity at 70.5 h is -5.31%.

Consider `CC[C@@H](Cn1ncc2ccccc2c1=O)NC(=O)c1ccco1`, for which the cytotoxicity at 70.5 h was -8.28%.

`Cc1ncc(CN2CCc3c(nc4cc(C5CC5)nn4c3O)C2)n1C`: the cytotoxicity at 70.5 h was -2.73%.

On to `O=C(Cc1cccc(F)c1F)NC1COc2ccccc2C1=O` (stereo not drawn), for which the cytotoxicity at 70.5 h was -10.6%.

Turning to `Cc1nn(C)c(C)c1NC(=O)CNC(c1ccccc1)C1CCCC1` (stereo not drawn), the cytotoxicity at 70.5 h was -9.64%.

As to `CCCN(CCC)C(=O)c1sc(C)nc1C`, the cytotoxicity at 70.5 h was -7.05%.

For `CC(SCCNS(=O)(=O)c1cnn(C)c1)c1cccs1` (stereo not drawn), the cytotoxicity at 70.5 h is -4.4%.

As for `CCc1cnc(CNC(=O)NC2CC(C)(C)OC2(C)C)s1` (stereo not drawn), the cytotoxicity at 70.5 h turned out to be 12.1%.

Take `Cc1nc(C)c(CNC(=O)NC2CC(C)(C)OC2(C)C)s1` (stereo not drawn): the cytotoxicity at 70.5 h is -0.473%.

`Cc1nc(-c2cccs2)ccc1C(=O)N1CCN(CCO)CC1`: the cytotoxicity at 70.5 h was 0.744%.

Turning to `CCC(CC)(CNC(=O)c1cccn1Cc1cccnc1)N(C)C`, the cytotoxicity at 70.5 h is -3.43%.

In the case of `Cc1cc(NC(=O)c2ccc(C)c(F)c2)[nH]n1`, the cytotoxicity at 70.5 h was -1.85%.

Consider `Cc1ccc(-c2nc(CC(=O)NCC3CCOC3)cs2)o1` (stereo not drawn), for which the cytotoxicity at 70.5 h was -2.56%.

Take `COCCCc1nc(-c2ccc(S(=O)(=O)N3CCCC3)cc2)cs1`: the cytotoxicity at 70.5 h is -4.93%.

As for `CC(C#N)CN(C)Cc1cc(Cl)cc2cccnc12` (stereo not drawn), the cytotoxicity at 70.5 h was -0.893%.

In the case of `Cc1ccc(-c2nc(CC(=O)NCC3CCCOC3)cs2)o1` (stereo not drawn), the cytotoxicity at 70.5 h was -0.602%.

For the molecule `CC1CCCN(C(=O)c2cn(-c3ccc(C(F)(F)F)cn3)nn2)C1` (stereo not drawn), the cytotoxicity at 70.5 h stood at 12.2%.

As for `CCc1ccc2c(c1)C(CCNC(=O)CCc1ccsc1)C(=O)N2` (stereo not drawn), the cytotoxicity at 70.5 h was -2.26%.

Turning to `NS(=O)(=O)c1ccc(NCc2ccccc2)cc1C(F)(F)F`, the cytotoxicity at 70.5 h worked out at 4.82%.

Take `CCc1nnc(S(=O)(=O)Cc2cc(Cl)c3c(c2)OCO3)n1C`: the cytotoxicity at 70.5 h is -1.18%.

On to `CCN(C)S(=O)(=O)c1c(F)cc(NC(C)=O)cc1F`, for which the cytotoxicity at 70.5 h is -2.83%.

For the molecule `O=C(c1ccc(-c2cccs2)cc1F)N1CCN(CCO)CC1`, the cytotoxicity at 70.5 h is -2.06%.

As for `Cc1nc(-c2ccccc2)ccc1C(=O)N1CCN(CCO)CC1`, the cytotoxicity at 70.5 h was -1.89%.

Turning to `Cc1ccc(C(=O)N(C)S(C)(=O)=O)cc1Cl`, the cytotoxicity at 70.5 h was -1.55%.

For `Cc1ccc(C)c(-n2ncc(NC(=O)NC3(C)CCOC3)c2C)c1` (stereo not drawn), the cytotoxicity at 70.5 h stood at 14.4%.

As for `CC(C)C(C)NC(=O)c1cccn1Cc1cccnc1` (stereo not drawn), the cytotoxicity at 70.5 h is -0.474%.

For `Cc1ccc(C)c(-n2nnnc2SCN2CCCCC2=O)c1`, the cytotoxicity at 70.5 h is -3.06%.

As to `CCOCCCNC(=O)c1cccn1Cc1cccnc1`, the cytotoxicity at 70.5 h is -4.46%.

On to `CN1CCN(C(=O)CCC(=O)c2cccs2)Cc2ccccc21`, for which the cytotoxicity at 70.5 h is -0.893%.

Turning to `CN1CCN(C(=O)c2cccs2)Cc2ccccc21`, the cytotoxicity at 70.5 h is -0.544%.

As for `CC(=O)N(C)Cc1ccccc1NC(=O)c1ccccc1C`, the cytotoxicity at 70.5 h was -2.28%.

Regarding `N#Cc1cnc2cc(F)cc(F)c2c1NC1CCN(CC(N)=O)CC1`, the cytotoxicity at 70.5 h was -4.4%.

`O=C(CSc1nnc(N2CCOCC2)s1)NCc1cccs1`: the cytotoxicity at 70.5 h was -2.54%.

Regarding `O=C(Nc1ccc(F)cc1)N1CCC(CO)(Nc2ccccc2)CC1`, the cytotoxicity at 70.5 h worked out at 0.526%.

With `CN(CC(=O)Nc1cnn(-c2ccccc2S(C)(=O)=O)c1)C1CC1`, the cytotoxicity at 70.5 h is -3.94%.

Consider `CC(C)C(NC(=O)N1CCS(=O)(=O)CC1)c1ccccc1Cl` (stereo not drawn), for which the cytotoxicity at 70.5 h was -5.93%.

Turning to `Cn1cc(NS(=O)(=O)CCOc2ccc(F)cc2)cn1`, the cytotoxicity at 70.5 h is -4.23%.

For `Cc1cccc(C2CCCCCN2C(=O)c2cn(CC(N)=O)nn2)c1` (stereo not drawn), the cytotoxicity at 70.5 h is -6.65%.

Consider `Cc1ccc(S(=O)(=O)NC(=O)CCC(F)(F)F)cc1N(C)C`, for which the cytotoxicity at 70.5 h is -1.96%.

On to `Cc1ccc(S(=O)(=O)NC(=O)CCc2ccccc2)cc1N(C)C`, for which the cytotoxicity at 70.5 h is -5.27%.

Take `O=C(Nc1cn[nH]c1)N1CCCCCC1c1ccncc1` (stereo not drawn): the cytotoxicity at 70.5 h is -8.75%.

As for `CC(NC(=O)N1CCNC(=O)CC1)c1c(F)cccc1Cl` (stereo not drawn), the cytotoxicity at 70.5 h is -4.44%.

In the case of `CCCS(=O)(=O)N1CCN(C(C)(C)CO)CC1`, the cytotoxicity at 70.5 h was 15.5%.

Regarding `CN(CC(C)(CO)CO)C(=O)Nc1cc(F)cc(Cl)c1`, the cytotoxicity at 70.5 h is -6.37%.

Turning to `CC(NCCCN1CCCC1=O)c1ccc(F)cc1N(C)C` (stereo not drawn), the cytotoxicity at 70.5 h was -4.56%.

With `CC(NCC1(N(C)C)CCOCC1)c1ccc(S(C)(=O)=O)cc1` (stereo not drawn), the cytotoxicity at 70.5 h was -3.6%.

Regarding `CC(NCCCN1CCCC1=O)c1cc(Br)ccc1O` (stereo not drawn), the cytotoxicity at 70.5 h was -5.37%.

For `Cn1cc(NCCOc2ccc(F)cc2)cn1`, the cytotoxicity at 70.5 h was -5.12%.

Take `Cc1ccc(O)c(CNc2cccc(CN3CCN(C)CC3)c2)n1`: the cytotoxicity at 70.5 h was -0.441%.

In the case of `CC1CCCCN1C(=O)CCc1nnc(-c2ccccc2)o1` (stereo not drawn), the cytotoxicity at 70.5 h was -1.68%.

For `NC(=O)CS(=O)(=O)Cc1csc(-c2ccccc2)n1`, the cytotoxicity at 70.5 h was -4.61%.

For the molecule `O=C(Cc1ccc2c(c1)CCCC2)Nc1cccnc1N1CCSCC1`, the cytotoxicity at 70.5 h is -7.86%.

As to `O=C(Nc1cccnc1N1CCSCC1)c1cc2c(s1)CCCCC2`, the cytotoxicity at 70.5 h was -6.67%.

For the molecule `Cc1nc(-c2ccccc2)sc1CNC(=O)c1ccc(=O)n(C)c1`, the cytotoxicity at 70.5 h was -3.22%.

For the molecule `Cc1c(C(=O)N2CCC2)nnn1-c1ccc2ncccc2c1`, the cytotoxicity at 70.5 h is -3.53%.

As to `Cc1ccc(S(=O)(=O)Nc2ccc(-n3ccnc3C)nc2)cc1N(C)C`, the cytotoxicity at 70.5 h is -2.22%.

Take `Cc1cccc(NCc2nc(C)ccc2O)c1`: the cytotoxicity at 70.5 h is -1.28%.

Consider `COCCN1CCC(CNC(=O)CCc2cc(F)ccc2F)C1` (stereo not drawn), for which the cytotoxicity at 70.5 h is -4.52%.

Take `CCc1ccc(C(=O)N2CCCN(Cc3csc(CC)n3)CC2)o1`: the cytotoxicity at 70.5 h amounted to 6.45%.

Regarding `CCN1CCN(C(=O)c2ccc(OC)nn2)c2ccccc21`, the cytotoxicity at 70.5 h is -0.876%.

`CN(C)C(=O)CN(C)C(=O)c1cccn1CCc1ccccc1`: the cytotoxicity at 70.5 h is -3.57%.

Regarding `c1cnnc(N2CCCC(NCc3cccc4c3OCO4)C2)c1` (stereo not drawn), the cytotoxicity at 70.5 h came to 1.39%.

Turning to `COc1ccc(OC)c(CNC2CCCN(c3cccnn3)C2)c1` (stereo not drawn), the cytotoxicity at 70.5 h is -3.12%.

As to `CCc1nc(CN2CCN(C(=O)c3cc(C)nn3C)CC2)cs1`, the cytotoxicity at 70.5 h is -6.68%.

Consider `CCN1CCN(C(=O)c2csnn2)c2ccccc21`, for which the cytotoxicity at 70.5 h turned out to be 9.42%.

As to `CS(=O)(=O)Cc1noc(CN(Cc2ccco2)c2ccccc2)n1`, the cytotoxicity at 70.5 h was -5.15%.

As to `NC(=O)c1ccc(CNC(=O)NCc2cc[nH]n2)cc1`, the cytotoxicity at 70.5 h was -12.2%.

`Cc1noc(C)c1C(=O)N(C)C(C)c1ccc(S(C)(=O)=O)cc1` (stereo not drawn): the cytotoxicity at 70.5 h is -20.5%.

As for `O=C(NCC1CCOC1)c1cc(-c2ccc(Cl)cc2)n[nH]1` (stereo not drawn), the cytotoxicity at 70.5 h worked out at 20.6%.

In the case of `CC(NC(=O)NC1CCN(Cc2ccncc2)CC1)c1ccccc1F` (stereo not drawn), the cytotoxicity at 70.5 h is -22.4%.

Consider `Cc1cc(N(C)CC2COc3ccccc3O2)nc(N)n1` (stereo not drawn), for which the cytotoxicity at 70.5 h was -5.43%.

As for `COc1cccc(CNC(=O)C(C)N2CC(n3nc(C)cc3C)C2)c1` (stereo not drawn), the cytotoxicity at 70.5 h is -12.9%.

In the case of `Cc1noc(C)c1C(=O)N(C)C(C)c1cccnc1` (stereo not drawn), the cytotoxicity at 70.5 h was -15.6%.

Consider `COc1ccccc1CNC(=O)C(C)N1CC(n2cc(C)cn2)C1` (stereo not drawn), for which the cytotoxicity at 70.5 h is -10.8%.

For the molecule `CNS(=O)(=O)CC(=O)N(C1CCCC1)C1CC1`, the cytotoxicity at 70.5 h is -12.4%.

Take `CN(CCOc1ccccc1)C(=O)Nc1cccn(C)c1=O`: the cytotoxicity at 70.5 h was 20.8%.

Consider `O=C1CSCN1Cc1nc(-c2ccc(N3CCCCC3)cc2)no1`, for which the cytotoxicity at 70.5 h is -5.66%.

Turning to `O=C1OCCCN1Cc1nc(-c2ccc(N3CCCCC3)cc2)no1`, the cytotoxicity at 70.5 h was -11.4%.

As to `NC(=O)c1ccc(NC(=O)N2CCN(c3cccs3)CC2)c(F)c1`, the cytotoxicity at 70.5 h is -16.2%.

Take `CC(C)c1noc(C(C)N2CCN(Cc3nc4ccccc4[nH]3)CC2)n1` (stereo not drawn): the cytotoxicity at 70.5 h is -8.5%.

Turning to `CCN(CC)C(=O)N1CCOCC1c1c(C)nn(C)c1C` (stereo not drawn), the cytotoxicity at 70.5 h is -10.5%.

With `Cc1nn(C)c(C)c1C1COCCN1C(=O)CSC(C)(C)C` (stereo not drawn), the cytotoxicity at 70.5 h is -18.7%.

For `CC(C)N(C)S(=O)(=O)N(Cc1cccs1)CC1CCCO1` (stereo not drawn), the cytotoxicity at 70.5 h was found to be 37.4%.

Take `CNC(=O)NC(=O)C(NCc1ccccc1)c1ccccc1` (stereo not drawn): the cytotoxicity at 70.5 h is 17.9%.

Turning to `COCCOc1ncccc1CNC(=O)N1CCCCCC1`, the cytotoxicity at 70.5 h was -12.7%.

Consider `CCCN(CC1COc2ccccc2O1)C(=O)CCN1C(=O)CCC1=O` (stereo not drawn), for which the cytotoxicity at 70.5 h was -18.8%.

With `CCC1CCCN(Cc2nc3ccccc3c(=O)[nH]2)C1` (stereo not drawn), the cytotoxicity at 70.5 h is -14%.

As to `O=C(CCSc1ccccc1F)N1CCN(c2cnccn2)CC1`, the cytotoxicity at 70.5 h stood at 11%.

As for `Cc1cc(C)c(CNC(=O)NCCNc2ccccn2)c(=O)[nH]1`, the cytotoxicity at 70.5 h was -9.53%.

On to `Cc1occc1C(=O)NCC(=O)NCCCOc1ccc(F)cc1`, for which the cytotoxicity at 70.5 h is -17.7%.

As for `O=C(CCSc1ccc(F)cc1)N1CCN(c2cnccn2)CC1`, the cytotoxicity at 70.5 h is -14.2%.

As for `COCCOc1ncccc1C(=O)N(C)c1nccs1`, the cytotoxicity at 70.5 h was -14.2%.

For the molecule `CC(=O)c1cccc(NC(=O)NCCc2nnc[nH]2)c1`, the cytotoxicity at 70.5 h was -10.6%.

In the case of `CCC(=O)NCC(CC)Oc1cccc(F)c1` (stereo not drawn), the cytotoxicity at 70.5 h is -3.64%.

With `Cc1nc(-c2ccc(F)c(F)c2)cc(C2CCNCC2)n1`, the cytotoxicity at 70.5 h was -2.44%.

Turning to `CCC(CN1CCOCC1)n1cncc1-c1ccc2c(c1)CCN2CC` (stereo not drawn), the cytotoxicity at 70.5 h is 21%.
